Biological target: T1, AsPC-1 HiBiT-KRASG12D (Homo sapiens, UniProt P01116, G12D)
T1 construct: insert the HiBiT tag onto the N-terminus of one or more of the endogenous KRAS alleles; endogenous in cells; host or cells: AsPC-1 (ATCC CRL-1682), CRISPR-Cas9 knock-in clone, one tagged allele
Experiment: HiBiT degradation assay (G12D), AsPC-1 HiBiT-KRASG12D cells
Format: cell-based
Conditions: 24 hours treatment; for Dmax: ASPC1, AsPC-1 HiBiT-KRASG12D cells, maximum degradation observed; for DC50: AsPC-1 HiBiT-KRASG12D cells, HiBiT luminescence
Method in brief: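 AsPC-1 cells (homozygous G12D) carrying a CRISPR knock-in N-terminal HiBiT tag on endogenous KRAS were treated with compounds for 24 hours at 37° C, 5% CO2, in triplicate. Alamar blue viability was read first, then cells were washed and lysed with Nano-Glo HiBiT reagent for 45 minutes before luminescence reading.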

T1 sequence (P01116 1-188 isoform P01116-2 G12D): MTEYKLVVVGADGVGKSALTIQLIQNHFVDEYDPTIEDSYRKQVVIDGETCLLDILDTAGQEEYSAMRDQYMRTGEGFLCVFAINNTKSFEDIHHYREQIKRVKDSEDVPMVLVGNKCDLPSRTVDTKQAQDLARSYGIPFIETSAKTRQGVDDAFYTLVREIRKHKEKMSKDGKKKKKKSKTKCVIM

| Compound | Dmax [%] | DC50 [µM] |
| --- | --- | --- |
| CCc1cccc2cc(O)cc(-c3ncc4c(N5CC6CCC(C5)N6)nc(OC[C@@]56CCCN5[C@H](COC(=O)N5CCN(c7cc([C@H](C(=O)N8C[C@H](O)C[C@H]8C(=O)N[C@@H](C)c8ccc(-c9scnc9C)cc8)C(C)C)on7)CC5)CC6)nc4c3F)c12 (relative stereo) [Compound 107, [(3R*,7aR**)-7a-{[(4-{3,8-diazabicyclo[3.2.1]octan-3-yl}-7-(8-ethyl-3-hydroxynaphthalen-1-yl)-8-fluoropyrido[4,3-d]pyrimidin-2-yl)oxy]methyl}-hexahydro-1H-pyrrolizin-3-yl]methyl 4-{5-[(2R***)-1-[(2S,4R)-4-hydroxy-2-{[(1S)-1-[4-(4-methyl-1,3-thiazol-5-yl)phenyl]ethyl]carbamoyl}pyrrolidin-1-yl]-3-methyl-1-oxobutan-2-yl]-1,2-oxazol-3-yl}piperazine-1-carboxylate] | 80 to 100 | < 0.6 |
| CCc1cccc2cc(O)cc(-c3ncc4c(N5CC6CCC(C5)N6)nc(OCCN5CCC(C)(COc6cc([C@H](C(=O)N7C[C@H](O)C[C@H]7C(=O)N[C@@H](C)c7ccc(-c8scnc8C)cc7)C(C)C)on6)CC5)nc4c3F)c12 [Compound 32, (2S,4R)-1-[(2R)-2-{3-[(1-{2-[(4-{3,8-diazabicyclo[3.2.1]octan-3-yl}-7-(8-ethyl-3-hydroxynaphthalen-1-yl)-8-fluoropyrido[4,3-d]pyrimidin-2-yl)oxy]ethyl}-4-methylpiperidin-4-yl)methoxy]-1,2-oxazol-5-yl}-3-methylbutanoyl]-4-hydroxy-N-[(1S)-1-[4-(4-methyl-1,3-thiazol-5-yl)phenyl]ethyl]pyrrolidine-2-carboxamide] | 80 to 100 | < 0.6 |
| CCc1cccc2cc(O)cc(-c3ncc4c(N5CC6CCC(C5)N6)nc(OC[C@]56CCCN5[C@H](COC(=O)N5CCN(c7cc([C@H](C(=O)N8C[C@H](O)C[C@H]8C(=O)N[C@@H](C)c8ccc(-c9scnc9C)cc8)C(C)C)on7)[C@@H](C)C5)CC6)nc4c3F)c12 [Compound 123, [(3S,7aR)-7a-{[(4-{3,8-diazabicyclo[3.2.1]octan-3-yl}-7-(8-ethyl-3-hydroxynaphthalen-1-yl)-8-fluoropyrido[4,3-d]pyrimidin-2-yl)oxy]methyl}-hexahydro-1H-pyrrolizin-3-yl]methyl (3S)-4-{5-[(2R)-1-[(2S,4R)-4-hydroxy-2-{[(1S)-1-[4-(4-methyl-1,3-thiazol-5-yl)phenyl]ethyl]carbamoyl}pyrrolidin-1-yl]-3-methyl-1-oxobutan-2-yl]-1,2-oxazol-3-yl}-3-methylpiperazine-1-carboxylate] | 80 to 100 | < 0.6 |
| CCc1cccc2cc(O)cc(-c3ncc4c(N5CC6CCC(C5)N6)nc(OCCN5CCC(C6CN(c7cc([C@@H](C(=O)N8C[C@H](O)C[C@H]8C(=O)N[C@@H](C)c8ccc(-c9scnc9C)cc8)C(C)C)on7)C6)CC5)nc4c3F)c12 (single isomer, unassigned) [Compound 277] | 20 to 60 | 1 to 3 |
| CCc1cccc2cc(O)cc(-c3ncc4c(N5CC6CCC(C5)N6)nc(OCCN5CCC(F)(CN6CCN(c7cc([C@H](C(=O)N8C[C@H](O)C[C@H]8C(=O)N[C@@H](C)c8ccc(-c9scnc9C)cc8)C(C)C)on7)C[C@@H]6C)CC5)nc4c3F)c12 [Compound 214, (2S,4R)-1-[(2R)-2-{3-[(3S)-4-[(1-{2-[(4-{3,8-diazabicyclo[3.2.1]octan-3-yl}-7-(8-ethyl-3-hydroxynaphthalen-1-yl)-8-fluoropyrido[4,3-d]pyrimidin-2-yl)oxy]ethyl}-4-fluoropiperidin-4-yl)methyl]-3-methylpiperazin-1-yl]-1,2-oxazol-5-yl}-3-methylbutanoyl]-4-hydroxy-N-[(1S)-1-[4-(4-methyl-1,3-thiazol-5-yl)phenyl]ethyl]pyrrolidine-2-carboxamide] | 80 to 100 | < 0.6 |
| CCc1cccc2cc(O)cc(-c3ncc4c(N5CC6CCC(C5)N6)nc(OCCN5CCC(CC6CN(c7cc([C@@H](C(=O)N8C[C@H](O)C[C@H]8C(=O)N[C@@H](C)c8ccc(-c9ccnn9C)cc8)C(C)C)on7)C6)CC5)nc4c3F)c12 (single isomer, unassigned) [Compound 265, (2S,4R)-1-[(2R*)-2-(3-{3-[(1-{2-[(4-{3,8-diazabicyclo[3.2.1]octan-3-yl}-7-(8-ethyl-3-hydroxynaphthalen-1-yl)-8-fluoropyrido[4,3-d]pyrimidin-2-yl)oxy]ethyl}piperidin-4-yl)methyl]azetidin-1-yl}-1,2-oxazol-5-yl)-3-methylbutanoyl]-4-hydroxy-N-[(1S)-1-[4-(1-methyl-1H-pyrazol-5-yl)phenyl]ethyl]pyrrolidine-2-carboxamide] | 60 to 80 | 1 to 3 |
| C#Cc1c(F)ccc2cc(O)cc(-c3ncc4c(N5CC6CCC(C5)N6)nc(OC[C@]56CCCN5[C@H](COc5cc([C@@H](C(=O)N7C[C@H](O)C[C@H]7C(=O)N[C@@H](C)c7ccc(-c8scnc8C)cc7)C(C)C)on5)CC6)nc4c3F)c12 [Compound 312, (2S,4R)-1-[(2S)-2-[3-[[(3S,8R)-8-[[4-(3,8-diazabicyclo[3.2.1]octan-3-yl)-7-(8-ethynyl-7-fluoro-3-hydroxy-1-naphthyl)-8-fluoro-pyrido[4,3-d]pyrimidin-2-yl]oxymethyl]-1,2,3,5,6,7-hexahydropyrrolizin-3-yl]methoxy]isoxazol-5-yl]-3-methyl-butanoyl]-4-hydroxy-N-[(1S)-1-[4-(4-methylthiazol-5-yl)phenyl]ethyl]pyrrolidine-2-carboxamide] | 20 to 60 | 1 to 3 |
| C#Cc1c(F)ccc2cc(O)cc(-c3ncc4c(N5CC6CCC(C5)N6)nc(OCCN5CCC6(CC5)CC(Oc5cc([C@@H](C(=O)N7C[C@H](O)C[C@H]7C(=O)N[C@@H](C)c7ccc(-c8scnc8C)cc7)C(C)C)on5)C6)nc4c3F)c12 [Compound 159, (2S,4R)-1-[(2S)-2-{3-[(7-{2-[(4-{3,8-diazabicyclo[3.2.1]octan-3-yl}-7-(8-ethynyl-7-fluoro-3-hydroxynaphthalen-1-yl)-8-fluoropyrido[4,3-d]pyrimidin-2-yl)oxy]ethyl}-7-azaspiro[3.5]nonan-2-yl)oxy]-1,2-oxazol-5-yl}-3-methylbutanoyl]-4-hydroxy-N-[(1S)-1-[4-(4-methyl-1,3-thiazol-5-yl)phenyl]ethyl]pyrrolidine-2-carboxamide] | 60 to 80 | < 0.6 |
| CCc1cccc2cc(O)cc(-c3ncc4c(N5CC6CCC(C5)N6)nc(OC[C@@]56CCCN5[C@H](CN5CCC(F)(COc7cc([C@@H](C(=O)N8C[C@H](O)C[C@H]8C(=O)N[C@@H](C)c8ccc(-c9scnc9C)cc8)C(C)C)on7)CC5)CC6)nc4c3F)c12 [Compound 336, (2S,4R)-1-[(2S)-2-[3-[[1-[[(3S,8S)-8-[[4-(3,8-diazabicyclo[3.2.1]octan-3-yl)-7-(8-ethyl-3-hydroxy-1-naphthyl)-8-fluoro-pyrido[4,3-d]pyrimidin-2-yl]oxymethyl]-1,2,3,5,6,7-hexahydropyrrolizin-3-yl]methyl]-4-fluoro-4-piperidyl]methoxy]isoxazol-5-yl]-3-methyl-butanoyl]-4-hydroxy-N-[(1S)-1-[4-(4-methylthiazol-5-yl)phenyl]ethyl]pyrrolidine-2-carboxamide] | 20 to 60 | 1 to 3 |
| CCc1cccc2cccc(-c3ncc4c(N5CC6CCC(C5)N6)nc(OC[C@@H]5CC[C@@H](COC(=O)N6CCN(c7cc([C@H](C(=O)N8C[C@H](O)C[C@H]8C(=O)N[C@@H](C)c8ccc(-c9scnc9C)cc8)C(C)C)on7)[C@H](C)C6)N5C)nc4c3F)c12 [Compound 222, [(2S,5S)-5-{[(4-{3,8-diazabicyclo[3.2.1]octan-3-yl}-7-(8-ethylnaphthalen-1-yl)-8-fluoropyrido[4,3-d]pyrimidin-2-yl)oxy]methyl}-1-methylpyrrolidin-2-yl]methyl (3R)-4-{5-[(2R)-1-[(2S,4R)-4-hydroxy-2-{[(1S)-1-[4-(4-methyl-1,3-thiazol-5-yl)phenyl]ethyl]carbamoyl}pyrrolidin-1-yl]-3-methyl-1-oxobutan-2-yl]-1,2-oxazol-3-yl}-3-methylpiperazine-1-carboxylate] | 60 to 80 | < 0.6 |
| CCc1cccc2cc(O)cc(-c3ncc4c(N5CC6CCC(C5)N6)nc(OCCN5CCC(O)(CC6CCN(c7cc([C@@H](C(=O)N8C[C@H](O)C[C@H]8C(=O)N[C@@H](C)c8ccc(-c9scnc9C)cc8)C(C)C)on7)CC6)CC5)nc4c3F)c12 [Compound 205, (2S,4R)-1-[(2S)-2-(3-{4-[(1-{2-[(4-{3,8-diazabicyclo[3.2.1]octan-3-yl}-7-(8-ethyl-3-hydroxynaphthalen-1-yl)-8-fluoropyrido[4,3-d]pyrimidin-2-yl)oxy]ethyl}-4-hydroxypiperidin-4-yl)methyl]piperidin-1-yl}-1,2-oxazol-5-yl)-3-methylbutanoyl]-4-hydroxy-N-[(1S)-1-[4-(4-methyl-1,3-thiazol-5-yl)phenyl]ethyl]pyrrolidine-2-carboxamide] | 20 to 60 | 1 to 3 |
| CCc1cccc2cc(O)cc(-c3ncc4c(N5CC6CCC(C5)N6)nc(OCCN5CCC(C)(CCOc6cc([C@@H](C(=O)N7C[C@H](O)C[C@H]7C(=O)N[C@@H](C)c7ccc(-c8scnc8C)cc7)C(C)C)on6)CC5)nc4c3F)c12 [Compound 238] | 80 to 100 | < 0.6 |

Source: patent publication US20250206732A1, “COMPOUNDS AND METHODS FOR THE TARGETED DEGRADATION OF KRAS” (Arvinas Operations, Inc., priority 2022, published 2025)
